Test system: C57BL/KsJ-db/db mice
Assay: Blood sugar and triglyceride lowering in db/db mice (in vivo test)
Details: male C57BL/KsJ-db/db mice, 200 mg / kg oral gavage daily for 10 days; for Maximum reduction in RBS level in a 9 days treatment (%): random blood sugar in plasma, glucose oxidase method, relative to vehicle control
Experimental: Male C57BL/KsJ-db/db mice of 6 weeks age procured from the Jackson Laboratory, USA were used in the experiment. The mice were provided with standard pellets made by National Institute of Nutrition, Hyderabad, India and ad libitum water. The mice of 8 to 14 weeks age, having body weight 40 to 55 grams or more were used for testing.
The random blood sugar (RBS) values were measured by withdrawing blood (20 ul) through orbital sinus, using heparinised capillary, centrifuging the blood to obtain plasma and measuring the glucose level in the plasma by the glucose oxidase method using Stangen glucose-kit. The triglyceride levels in plasma were measured by glycerol 3 PO4 oxidase / peroxidase enzyme method using Stangen kit. Four mice in a group having 300 mg / dl or more of the blood sugar level were used for the test.
The test compounds were suspended in 2.0 % gum acacia and administered to test group at a dose of 200 mg / kg, through oral gavage daily for 10 days. The control group received the vehicle (Gum acacia 2 % 10 ml / kg). The random blood sugar levels and triglyceride levels were measured at diffirent time intervals before and after administration of test compounds. Troglitazone, (200 mg / kg daily dose) was used as a standard compound in the protocol.
The ability of reducing blood sugar level was determined as described below. The mean blood sugar values on zero day before administering the control vehicle (ZC) and treated group (TC) and the means of blood sugar values of the vehicle treated control on 3rd, 6th and 9th day and test compound treated group day control (DC) and day treated (DT).
The blood sugar lowering effect of test compound is calculated according to the following formula : Blood sugar lowering effect (%) = 1 -(DT/TC)/(DC/ZC)X 100 [formula]
The blood triglyceride (TG) lowering activity was calculated as percent reduction on the 9th day as compared to the control animal values.

Cc1c(C)c2c(c(C)c1O)CCC(C)(CN(C)CCOc1ccc(C=C3SC(=O)NC3=O)cc1)O2 (stereo not drawn) [Example 12, 5-[4-[2-[N-(6-Hydroxy-2,5,7,8-tetramethylchroman-2-ylmethyl)-N-methylamino]ethoxy]phenylmethylene]thiazolidine-2,4-dione]
Triglyceride lowering (%) (plasma triglyceride, percent reduction on the 9th day compared to control animals): 70%
Maximum reduction in RBS level in a 9 days treatment (%): 43%

Cc1c(C)c2c(c(C)c1O)CCC(C)(COc1ccc(CC3SC(=O)NC3=O)cc1)O2 (stereo not drawn) [Troglitazone, reference compound]
Maximum reduction in RBS level in a 9 days treatment (%): 26%
